Literature values as cited in patent US20090092692A1, “The use of onion extracts to prevent and treat acute and chronic cardiac and vascular complications and their sequelae, as well as to resolve hematomas” (priority 2007, published 2009).

System: platelet
Conditions: low doses of aspirin, vasoocclusive disease

CC(=O)Oc1ccccc1C(=O)O [aspirin, Acetyl salicylic acid]
incidence of major haemorrhage: less than 1% | major outcome (death or further MI): approximately 60%
